Results from patent US5484940A, “Substituted 3-indolyl-5-pyrazolone compounds” (priority 1994, dated 1996).

Assays:
[1] = Ultraviolet absorption; format: physicochemical; conditions: 0.1 mg/mL in methanol, 1 cm quartz cuvette
Protocol: The ultraviolet (UV) absorption properties of two representative substituted 3-indolyl-5-pyrazolones were evaluated and compared to indomethacin [1-(4-chlorobenzoyl)-5-methoxy-2-methyl-^1 H-indole-3-acetic acid], a compound known to absorb UV light (See page 4855 of the Merck Index, 10th Edition, Windholz, et al. Editor (1983)). Specifically, 0.1 mg/mL of 3-indolyl-5-pyrazolone (Ex. 9 or 33) or indomethacin in methanol was added to a quartz cuvette (1 cm) and the UV absorption of this solution was then measured at a wavelength of from 200 nm to 800 nm (Examples 9 and 33) and from 190 nm to 800 nm.

[2] = tested on: β-amyloid peptide production; assay: Cellular screen for inhibitors of β-amyloid production (ELISA, 293 751 SWE cells); format: cell-based, human; conditions: 2 h pretreatment + 2 h, normalized for cytotoxicity (MTT), concentration not given
How it was run: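 293 751 SWE cells (K293 stably expressing APP751 Swedish mutant) pretreated 2 h with compound, then fresh compound-containing medium for 2 h more at 37 °C. Secreted β-amyloid in conditioned medium quantified by sandwich ELISA (capture 266 anti-Aβ13-28, labelled 6C6 anti-Aβ1-16) against a standard curve as ng/mL; mean ± SD of ≥6 replicates.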

[3] = tested on: 293 751 SWE cells; assay: Cytotoxicity (MTT) in 293 751 SWE cells; format: cell-based, human; conditions: concentration not given
How it was run: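 Used HEK293 cells stably expressing APP751 carrying the Swedish double mutation (K651N/M652L), plated at 1.5-2.5×10^4 cells/well in DMEM + 10% FBS. MTT was added to a final 1 mg/mL for 1 h at 37 °C, then lysed in SDS/DMF (pH 4.7) overnight. Viability was read as OD562 − OD650.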

[4] = molecular target: T1, 5-lipoxygenase (Rattus norvegicus, UniProt P12527); assay: 5-Lipoxygenase inhibition (5-HETE radioimmunoassay); format: biochemical; conditions: crude enzyme from RBL-1 cells, read-out: Percent Inhibition (5-lipoxygenase)
T1 construct: crude 5-lipoxygenase enzyme from rat basophilic leukemia cells (RBL-1); endogenous in cells; host or cells: RBL-1 (rat basophilic leukemia cells), crude enzyme
T1 sequence (P12527 1-673): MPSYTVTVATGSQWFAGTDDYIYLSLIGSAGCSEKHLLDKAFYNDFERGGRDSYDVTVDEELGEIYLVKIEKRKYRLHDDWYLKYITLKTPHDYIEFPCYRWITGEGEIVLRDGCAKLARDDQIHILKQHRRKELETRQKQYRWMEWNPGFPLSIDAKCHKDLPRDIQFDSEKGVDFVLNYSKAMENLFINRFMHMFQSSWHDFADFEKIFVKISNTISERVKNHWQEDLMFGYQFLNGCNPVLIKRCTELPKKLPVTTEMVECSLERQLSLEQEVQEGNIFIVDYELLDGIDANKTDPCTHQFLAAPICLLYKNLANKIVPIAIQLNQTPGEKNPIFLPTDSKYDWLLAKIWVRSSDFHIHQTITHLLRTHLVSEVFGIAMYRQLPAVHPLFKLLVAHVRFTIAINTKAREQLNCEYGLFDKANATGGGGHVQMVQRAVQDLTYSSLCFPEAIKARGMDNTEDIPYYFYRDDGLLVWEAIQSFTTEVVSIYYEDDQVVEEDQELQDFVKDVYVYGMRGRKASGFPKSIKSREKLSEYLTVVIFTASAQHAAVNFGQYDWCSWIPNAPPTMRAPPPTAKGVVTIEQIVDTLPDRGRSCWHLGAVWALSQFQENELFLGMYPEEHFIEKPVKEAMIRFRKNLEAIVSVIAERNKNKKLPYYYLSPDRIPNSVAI
Protocol: 5-Lipoxygenase catalyzes the oxidative metabolism of arachidonic acid to 5-hydroperoxyeicosatetraenoid acid ([…]), the initial reaction leading to the formation of the leukotrienes^18. Accordingly, compounds inhibiting 5-lipoxygenase activity are art recognized to have anti-inflammatory properties.
The ability of test compounds to inhibit 5-lipoxygenase activity was determined in assays^19 using crude 5-lipoxygenase enzyme from rat basophilic leukemia cells (RBL-1). Test compounds are pre-incubated with the enzyme for 5 minutes at room temperature and the reaction is initiated by addition of substrate (arachidonic acid). Following an 8 minute incubation at room temperature, the reaction is terminated by addition of citric acid, and levels of 5-HETE determined by 5-HETE radioimmunoassay.

Abs (at λmax) [1]	E = Extinction coefficient [1]	λmax [1]	λother (shoulder) [1]	inhibition at 6 µM ([4]; 6 μM compound)	inhibition at 7.5 µM ([4]; 7.5 μM compound)	Compound	reduction of β-amyloid peptide production as compared to control [2]	cytotoxic effect on the 293 751 SWE cells [3]
2.3299	23.29 AU/mg/mL/cm	251 nm	318 nm	75%		COc1ccc2c(c1)c(CC1=NN(C3CCCCC3)C(=O)C1)c(C)n2C(=O)c1ccc(Cl)cc1 [Example 9, 3-[1-(4-chlorobenzoyl)-5-methoxy-2-methyl-3-indolylmethyl]-1-cyclohexyl-5-pyrazolone]	at least 20%	did not have a significant cytotoxic effect
					48%	COc1ccc2c(c1)c(CC1=NN(C(C)(C)C)C(=O)C1)c(C)n2C(=O)c1ccc(Cl)cc1 [Example 14, 3-[1-(4-chlorobenzoyl)-5-methoxy-2-methyl-3-indolylmethyl]-1-t-butyl-5-pyrazolone]	at least 20%	did not have a significant cytotoxic effect
